{
  "source": "patent US8993717B2",
  "about": "“Gadd45beta targeting agents” (Imperial Innovations Limited, priority 2009, dated 2015)",
  "key": {"[1]": {"system": "U266, KMS-11, NCI-H929, ARH-77, JJN-3, KMS-12, KMS-18, KMS-27 cells", "assay": "[3H]thymidine incorporation assay, panel of 8 sensitive multiple myeloma cell lines", "format": "cell-based, human", "settings": "treatment for 144 hrs; read-out: IC50s ranging over the sensitive multiple myeloma cell lines", "procedure": "Cultures of multiple myeloma cells and treatments with Z-DTPs were carried out as described in Example 8 (see below). The effects of Z-DTPs on the survival/proliferation of multiple myeloma cells were evaluated by the use of [^3H]thymidine) incorporation assays, performed as also described in Example 8. The amount of cell proliferation measured with each of the Z-DTPs' concentrations used and with the untreated cultures (i.e. cultures incubated with medium alone), was expressed as counts per minute (c.p.m.)—which directly correlate with the extent of cell proliferation. All experiments were performed in triplicate."}, "Solubility": {"assay": "Solubility", "format": "physicochemical", "settings": "result in words"}, "[2]": {"system": "22 resistant tumour cell lines", "assay": "[3H]thymidine incorporation assay in a panel of 22 resistant tumour cell lines", "settings": "100 μM, 144 hours", "procedure": "In these latter assays, the effects of Z-DTPs, Ac-DTPs and Z-LTPs on the survival/proliferation of tumour cell lines was investigated by measuring DNA synthesis using standard tritiated thymidine ([^3H]thymidine; [^3H]-TdR) uptake assays. In the analyses shown, cells were incubated for 24, 72, 120 or 144 hrs at 37° C. in the presence or absence of control or bioactive tetrapeptides, as indicated, then subjected to an additional incubation for 18 hrs with [^3H]-TdR (0.037 MBq/well, equivalent to […]). Cells were subsequently harvested onto glass fibre filter mats using a 96-well plate automated cell harvester, after which scintillation fluid was added, and [^3H]thymidine incorporation measured by liquid scintillation spectroscopy on a beta counter. The results are expressed as the percentages of the counts per minute (c.p.m.) (directly correlating with the extent of cell proliferation) measured with tetrapeptide-treated cultures relative to the c.p.m. measured with the corresponding cultures incubated with medium alone (untreated cells). All experiments were performed in triplicate."}, "[3]": {"target": "T1, kinase domain of MKK7 (MKK7KD) (Homo sapiens, UniProt O14733, S271D/T275D)", "T1 construct": "His6; made in house; host or cells: E. coli", "T1 sequence (O14733 101-405 isoform O14733-3 S287D/T291D)": "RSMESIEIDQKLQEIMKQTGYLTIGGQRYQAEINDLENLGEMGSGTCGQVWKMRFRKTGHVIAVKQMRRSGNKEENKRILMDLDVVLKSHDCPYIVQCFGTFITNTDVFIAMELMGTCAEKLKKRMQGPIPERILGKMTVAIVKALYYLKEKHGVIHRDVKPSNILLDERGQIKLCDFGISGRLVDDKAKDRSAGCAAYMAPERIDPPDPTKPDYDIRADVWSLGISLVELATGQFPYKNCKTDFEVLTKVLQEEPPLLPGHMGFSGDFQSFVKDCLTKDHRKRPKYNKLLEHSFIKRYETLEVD", "assay": "Surface Plasmon Resonance, immobilized MKK7KD", "format": "binding", "settings": "1 nM to 10 μM", "procedure": "(§1) To determine how DTPs bind to the Gadd45 β/MKK7 complex, experiments were performed with a Biacore3000 SPR instrument (GE Healthcare, Milan, Italy), using 4-channels CM5 sensorchips (GE Healthcare, Milan, Italy). Full length human Gadd45β was prepared and purified as described in the reference by Tornatore L., et al. (2008). J Mol Biol; 378:97-111. […] The protein was purified to homogeneity by two subsequent steps of affinity chromatography (Ni-NTA support) and gel filtration (Superdex G75), and then characterized by SDS-PAGE, LC-MS to verify identity and purity, and by Circular Dichroism to assess folding.\n(§2) MKK7KD was immobilized on the Biacore sensorchip via classical EDC/NHS coupling chemistry at pH 5 (protein pI, ˜9) at a flow rate of 5 uL/min An immobilization level of about 8000 Response Units was achieved. Gadd45β, which is an intrinsically acidic protein with a pI of about 4.5, was immobilized at pH 3.5 (6000 RU immobilization levels) on a separate channel. The residual reactive groups on both the Gadd45β and MKK7KD channels were finally inactivated by treatment with ethanolamine. On another channel the same procedure of activation with EDC/NHS and inactivation with ethanolamine was performed. […]"}, "Gadd45β": {"target": "T2, Gadd45β (Homo sapiens, UniProt O75293)", "T2 construct": "made in house", "T2 sequence (O75293 1-160)": "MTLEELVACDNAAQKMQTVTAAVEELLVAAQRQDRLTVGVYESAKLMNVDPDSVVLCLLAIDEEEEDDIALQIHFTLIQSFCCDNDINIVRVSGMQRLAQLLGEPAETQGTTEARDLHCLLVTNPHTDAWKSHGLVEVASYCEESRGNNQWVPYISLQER", "assay": "Surface Plasmon Resonance, immobilized Gadd45β", "format": "binding", "settings": "1 nM to 10 μM", "procedure": "as §1, §2"}, "Gadd45β/MKK7 complex": {"target": "T3, Gadd45β/MKK7 complex (Homo sapiens, UniProt O14733, S271D/T275D)", "T3 construct": "His6; made in house; host or cells: E. coli (MKK7KD)", "T3 sequence (O14733 101-405 isoform O14733-3 S287D/T291D limits assumed)": "T1 sequence (O14733 101-405 isoform O14733-3 S287D/T291D)", "assay": "Surface Plasmon Resonance, preformed Gadd45β/MKK7KD complex", "format": "binding", "procedure": "as §1, §2"}, "CaCO2": {"system": "CaCO2", "assay": "CaCO2 assays", "format": "in vitro ADME", "settings": "data not shown"}},
  "note": "Square brackets hold non-standard residues; d marks the D form. Peptide text beside a SMILES is read from it. * marks the point of attachment. Cbz = O=C(OCc1ccccc1)*",
  "data": [
    {"smiles": "NC(=O)[C@@H](Cc1ccccc1)NC(=O)[C@@H](Cc1c[nH]cn1)NC(=O)[C@@H](CC(=O)O)NC(=O)[C@@H](Cc1ccc(O)cc1)NC(=O)OCc1ccccc1", "note": "[Compound 1, Z-Tyr-Asp-His-Phe-NH2] (Cbz-[dY][dD][dH][dF]-NH2)", "values": [
      {"measurement": "IC50", "setting": "[1]", "value": "10.1 to 4900", "unit": "nM"}
    ]},
    {"smiles": "N=C(N)NCCC[C@@H](NC(=O)[C@@H](CCC(=O)O)NC(=O)[C@@H](Cc1ccc(O)cc1)NC(=O)OCc1ccccc1)C(=O)N[C@H](Cc1ccccc1)C(N)=O", "note": "[Compound 9, Z-D-Tyr-D-Glu-D-Arg-D-Phe-NH2] (Cbz-[dY][dE][dR][dF]-NH2)", "values": [
      {"measurement": "solubility", "setting": "Solubility", "value": "high solubility"},
      {"measurement": "cytotoxicity in resistant tumour cell lines", "setting": "[2]", "value": "no cytotoxicity"}
    ]},
    {"smiles": "CC(=O)N[C@H](Cc1ccc(O)cc1)C(=O)N[C@H](CCCNC(=N)N)C(=O)N[C@H](Cc1ccccc1)C(N)=O", "note": "[Compound 17, Ac-D-Tyr-D-Arg-D-Phe-NH2] (Ac-[dY]-[dR]-[dF]-NH2)", "values": [
      {"measurement": "binding to MKK7KD in isolation", "setting": "[3]", "value": "does not bind"},
      {"measurement": "binding to Gadd45β in isolation", "setting": "Gadd45β", "value": "does not bind"},
      {"measurement": "effect on preformed Gadd45β/MKK7KD complex", "setting": "Gadd45β/MKK7 complex; injected at 10 nM or 100 nM during dissociation phase", "value": "induced a rapid dissociation of the Gadd45β/MKK7KD complex"},
      {"measurement": "binding to preformed Gadd45β/MKK7KD complex", "setting": "Gadd45β/MKK7 complex; injected at higher concentrations (e.g. 1 μM)", "value": "dose-response binding and dissociation curves were recorded"}
    ]},
    {"smiles": "CC(=O)N[C@H](Cc1ccc(O)cc1)C(=O)N[C@H](CCC(=O)O)C(=O)N[C@H](CCCNC(=N)N)C(=O)N[C@H](Cc1ccccc1)C(N)=O", "note": "[DTP2, Acetyl-(D-Tyr)-(D-Glu)-(D-Arg)-(D-Phe)-NH2] (Ac-[dY][dE][dR][dF]-NH2)", "values": [
      {"measurement": "cellular permeability", "setting": "CaCO2", "value": "low cellular permeability"}
    ]}
  ]
}
